According to patent US20150045266A1, “IONIC LIQUID AS LUBRICATING OIL BASE STOCKS, COBASE STOCKS AND MULTIFUNCTIONAL FUNCTIONAL FLUIDS” (ExxonMobil Research and Engineering Company, priority 2012, published 2015):

Test: Solubility in di(tridecyl) adipate ester base stock (Esterex A51)
Format: physicochemical
Conditions: Group V ester base stock
Excerpt: The ionic liquids of Examples 5, 7, 9, 11 and 13 have good viscosity index.

Row | Compound | solubility in di(tridecyl) adipate ester base stocks
1 | CCCCCCCCCCn1cc[n+](C)c1 [Example 5, 1-methyl-3-decylimidazolium bis(trifluoromethanesulfonyl)imide] | highly soluble
2 | CCCCCCCCCCCCCCCCn1cc[n+](C)c1 [Example 7, 1-methyl-3-hexadecylimidazolium bis(trifluoromethanesulfonyl)imide] | highly soluble
3 | CCCCCCCCCC[n+]1ccn(CCCC)c1 [Example 9, 1-butyl-3-decylimidazolium bis(trifluoromethanesulfonyl)imide] | highly soluble
4 | CCCCCCCCCCCCCCCC[n+]1ccn(CCCC)c1 [Example 11, 1-butyl-3-hexadecylimidazolium bis(trifluoromethanesulfonyl)imide] | highly soluble
5 | CCCCCCCCCC[n+]1ccn(Cc2ccccc2)c1 [Example 13, 1-benzyl-3-decylimidazolium bis(trifluoromethanesulfonyl)imide] | highly soluble
